By IC50 is commonly meant the concentration that gives 50% inhibition.

Molecules are shown by their SMILES. Entries after “also recorded” stand apart in the source; their conditions may differ.

For one data set, the system named is MCF-7 cells. Nature of the data set: CCK-8 proliferation assay, MCF-7. It is filed as cell-based, human. The conditions noted are these: Homo sapiens, MCF7; 48 h, CCK-8, mean ± SD. The procedure:
(§1) All synthesized β-lactam-azide derivatives were evaluated for their antiproliferative activity against three cancer cell lines (MGC-803, MCF-7, A549) using CCK-8 proliferation assay. The well-known anticancer drug CA-4P was used as a control[36],[37].
(§2) MGC-803 cell line was obtained from the Chinese Academy of Sciences (Shanghai, China). MCF-7 and A549 were from the National Cell Center, China. MGC-803 cells were cultured in DMEM culture medium (DMEM, Biological Industries, Kibbutz Beit Haemek, Israel). A549 and MCF-7 cells were cultured in 1640 medium (1640, Biological Industries, Kibbutz Beit Haemek, Israel). All medium were supplemented with 10% fetal bovine serum, 100 U/ml penicillin (North China Pharmaceutical group Co.), and 100 µg/ml streptomycin (North China Pharmaceutical group Co.). All cells were cultured at 37 °C in a humidified incubator containing 5% CO2.
(§3) Synthesized analogues used in the study were dissolved in 100% cell culture grade DMSO and the final concentration of DMSO as <0.1% for testing on cancer cell lines. Cytotoxicity assays were performed on the human gastric carcinoma cell line MGC-803, the human mammary carcinoma cell line MCF-7, the human lung carcinoma cell line A549. Cells (3500–5000/well) were seeded into 96-well plates in 100 µL of culture medium. The cells were treated in triplicate with a gradient concentration of testing compounds and incubated at 37 °C, 5% CO2 for 48 h. For all cell lines, CCK-8 assay was performed to measure cytotoxic effects. The absorbance was measured using a microplate reader (BioTek Instrument, Inc. Vermont, USA) with a test wavelength of 450 nm. The absorbance levels were corrected against untreated control absorbance values. All experiments were performed in triplicate and SPSS17.0 was used for data analysis to obtain IC50 values.
A general note: Formazan colour is commonly taken as a measure of viable cells.

The subject of a further data set is MGC-803 xenograft. Kind of data set: MGC-803 xenograft model in nude mice. It is filed as in vivo, BALB/c nude mice. The conditions noted are these: for average tumor weight: 21 days (control 1.23 ± 0.28); for mean tumor volume at end of observation period: 21 days (control 1665.98 ± 568.36). The procedure: To evaluate the potential antitumor effects of 28 in vivo, a MGC-803 xenograft model were established in nude mice by subcutaneously injecting MGC-803 cells at its logarithmic phase into the right flank of mice[56]. Tumor bearing mice were then randomly assigned to five groups (control, 100 mg/kg CA-4P, 25, 50, 100 mg/kg 28) with 10 mice per group. Then, the mice were gavaged with saline (control), CA-4P and different concentrations of 28 in saline solution daily. […] At the end of the observation period, mean tumor volumes of control, CA-4P, 25, 50, and 100 mg/kg 28 groups were 1665.98 ± 568.36 mm^3, 642.61 ± 449.92 mm^3, 788.18 ± 435.92 mm^3, 1125.93 ± 668.25 mm^3 and 1273.88 ± 513.69 mm^3, respectively. […] The antitumor activity of 28 in vivo was similar to that of CA-4P.
Animals were treated according to protocols established by the ethics committee of Zhengzhou University and the in vivo experiments were carried out in accordance with the approved guidelines and approved by the ethics committee of Zhengzhou University. BALB/c nude mice (18 g, aged 4–5 weeks) were purchased from Human SJA Laboratory Animal Co. Ltd. (Hunan, China). Mice were subcutaneously implanted with MGC-803 cells (5 × 10^6 cells per mouse) on the right flank of nude mice. Once tumor volumes reached to approximately 100 mm^3, the mice were randomly divided into corresponding saline, CA-4P (100 mg/kg), 28 (100 mg/kg), 28 (50 mg/kg) and 28 (25 mg/kg) treatment groups (n = 10 mice for each group). The treatment groups received intragastric administration of 28 and CA-4P per day for a period of 21 days. Then, the mice were euthanized and tumors isolated and weighed. Their body weights were measured and tumor sizes determined by vernier caliper measurement every other day.

The subject of data set [1] is MGC-803 cells. Nature of the data set: Western blotting of apoptosis-related proteins. It is filed as cell-based, human. Conditions: concentration-dependent. As to the method: (§4) We next evaluated whether 28 induces apoptosis in MGC-803 cells by flow cytometry analysis of propidium iodide (PI) and Annexin V stained cells. […] When MGC-803 cells were incubated with 28 at 0.1, 0.2, and 0.3 μM for 24 h, the percentages of early apoptotic cells were 12.4%, 40.5%, and 49.7%, respectively and those of late apoptotic cells 2.1%, 10.1%, and 9.4%, respectively (Fig. 4A). Bcl-2 family proteins were crucial components of mitochondrial stress-induced cellular apoptosis. Thus, the expression of apoptosis-related proteins was also determined.
(§5) An Annexin V-FITC/PI kit (KeyGEN BioTECH, Nanjing, China) was used to detect apoptosis. Cells were seeded in 6-well plates and treated with 0, 0.1, 0.2 and 0.3 µM of 28 for 24 h. Then MGC-803 cells were collected and suspended in binding buffer containing Annexin V-FITC (0.5 mg/mL) and PI (0.5 mg/mL) and incubated in dark for 20 min and analyzed by flow cytometry (Becton, Dickinson and Company, NJ). The apoptosis related proteins of western blot analysis were conducted according to our previously reported method[31],[32].
Background: A western blot detects proteins with antibodies after separation by electrophoresis.

The subject of the next data set is tubulin. Kind of data set: In vitro tubulin polymerization assay. It is filed as biochemical. Conditions: 5.6 mg/ml tubulin, absorbance 340 nm, 37 °C; read-out: tubulin polymerization inhibition IC50. The procedure:
The in vitro tubulin polymerization inhibitory activity of 28 was then evaluated. Purified and unpolymerized tubulin was incubated with 28 at indicated concentrations, and tubulin polymerization was measured by the method originally described by D. Bone et al.[46].
An amount of 5.6 mg/ml tubulin was resuspended in PEM buffer [80 mM PIPES (pH 6.9), 1 mM EGTA, 0.5 mM MgCl2, 1 mM […], 10.2% (v/v) glycerol] and then was preincubated with compound 28 or vehicle DMSO on ice. The reaction was monitored by a spectrophotometer in absorbance at 340 nm at 37 °C every 5 min. The final concentrations of 28 were listed as follows: 0, 1, 2, and 4 µM.

Data set [2] concerns MGC-803 cells. Kind of data set: Annexin V-FITC/PI apoptosis analysis by flow cytometry. The conditions noted are these: 24 h. The class given is cell-based, human. As to the method: as §4, §5
A general note: In flow cytometry, cells or beads pass a laser one at a time.

For data set [3], the system named is MGC-803 cells. Nature of the data set: CCK-8 proliferation assay, MGC-803. The class given is cell-based, human. The conditions noted are these: Homo sapiens, MGC-803; 48 h, CCK-8, mean ± SD. The procedure: as §1, §2, §3

For the compound `COc1cc(N2C(=O)[C@H](c3cccs3)[C@H]2c2cccc(N=[N+]=[N-])c2)cc(OC)c1OC` (relative stereo) [Compound 28, trans-4-(3-azidophenyl)-3-(thiophen-2-yl)-1-(3,4,5-trimethoxyphenyl)azetidin-2-one], the IC50 came out at 421 ± 47 nM in the data set with MCF-7 cells, 2260 nM in the data set with tubulin and 106 ± 1 nM in the data set with MGC-803 cells [3]. Besides, the “inhibitory rate (tumor weight)” value in the data set with MGC-803 xenograft (25 mg/kg, intragastric daily, 21 days) is recorded as 59.34%; in the data set with MGC-803 xenograft (50 mg/kg, intragastric daily, 21 days), 30.78%; with MGC-803 xenograft (100 mg/kg, intragastric daily, 21 days), 10.99%. In addition, the average tumor weight is given as 0.53 ± 0.20 g with MGC-803 xenograft (25 mg/kg, intragastric daily); 0.85 ± 0.32 g with MGC-803 xenograft (50 mg/kg, intragastric daily); 1.09 ± 0.31 g in the data set with MGC-803 xenograft (100 mg/kg, intragastric daily). Further, the “mean tumor volume at end of observation period” value in the data set on MGC-803 xenograft (25 mg/kg, intragastric daily) amounted to 788.18 ± 435.92 mm^3; in the data set with MGC-803 xenograft (50 mg/kg, intragastric daily) it was 1125.93 ± 668.25 mm^3; with MGC-803 xenograft (100 mg/kg, intragastric daily), 1273.88 ± 513.69 mm^3. Further, the tumor growth result in the data set on MGC-803 xenograft (100 mg/kg, intragastric daily) is “considerable suppression of tumor growth”. In the data set with MGC-803 xenograft (oral administration, 21 days), the “body weight of mice” value is listed as “without causing significant loss of body weight; also recorded: without causing any obvious loss of body weight”. For the same compound, in the data set with MGC-803 cells [1], the “expression of Bcl-2” value was “decreased”. The “expression of cleaved caspase-3, caspase-9 and PARP” value in the data set with MGC-803 cells [1] is “increased”. In the data set with MGC-803 cells [1], the “protein expression of BAX” value is reported as “increased”. The figures for the early apoptotic cells in the data set with MGC-803 cells [2] (0.1 μM), in the data set on MGC-803 cells [2] (0.2 μM) and with MGC-803 cells [2] (0.3 μM) were 12.4%, 40.5% and 49.7%, respectively. The results for the late apoptotic cells in the data set with MGC-803 cells [2] (0.1 μM), with MGC-803 cells [2] (0.2 μM) and in the data set with MGC-803 cells [2] (0.3 μM) were 2.1%, 10.1% and 9.4%, respectively.

Values taken from PMC5630639 (Scientific Reports, 2017).
